Source: patent US9115137B2, “2,3,4,5-tetrahydro-1H-pyrido[4,3-B]indole compounds and methods of use thereof” (priority 2008, dated 2015)

Legend:
[1] = target: T1, human recombinant adrenergic α2A receptor (Homo sapiens, UniProt P08913); assay: Adrenergic α2A radioligand binding ([3H]MK-912); conditions: compound at 1 μM; insect Sf9 cells; read-out: Adrenergic (1 μM) α2A, percent inhibition of specific binding
T1 construct: expressed in transfected cells; host or cells: insect Sf9 cells
T1 sequence (P08913 1-465): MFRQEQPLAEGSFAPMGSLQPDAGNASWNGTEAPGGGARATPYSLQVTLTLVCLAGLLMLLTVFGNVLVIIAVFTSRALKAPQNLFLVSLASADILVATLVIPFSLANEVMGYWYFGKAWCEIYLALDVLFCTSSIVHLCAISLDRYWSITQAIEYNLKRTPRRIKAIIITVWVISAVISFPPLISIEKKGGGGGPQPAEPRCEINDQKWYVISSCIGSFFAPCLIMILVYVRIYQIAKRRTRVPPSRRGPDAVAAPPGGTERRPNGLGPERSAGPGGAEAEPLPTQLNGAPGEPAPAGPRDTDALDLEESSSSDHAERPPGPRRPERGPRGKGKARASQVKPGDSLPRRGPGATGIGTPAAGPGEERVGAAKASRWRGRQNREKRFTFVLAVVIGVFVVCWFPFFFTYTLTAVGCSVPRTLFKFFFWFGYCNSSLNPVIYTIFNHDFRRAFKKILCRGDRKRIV
Protocol: To evaluate in radioligand binding assays the activity of compounds of the invention, human recombinant adrenergic α2A receptor expressed in insect Sf9 cells (Uhlen S et al. J Pharmacol Exp Ther. 271:1558, 1994) in a modified Tris-HCl buffer (50 mM Tris-HCl, pH 7.4, 12.5 mM MgCl2, 2 mM EDTA) was used. Compounds of invention were incubated with 1 nM [^3H]MK-912 for 60 minutes at 25° C. MK912 is (2S-trans)-1,3,4,5′,6,6′,7,12b-octahydro-1′,3′-dimethyl-spiro[2H-benzofuro[2,3-a]quinolizine-2,4′(1′H)-pyrimidin]-2′(3′H)-one hydrochloride Non-specific binding was estimated in the presence of 10 μM WB-4101 (2-(2,6-Dimethoxyphenoxyethyl)aminomethyl-1,4-benzodioxane hydrochloride). Receptor proteins were filtered and washed, the filters were then counted to determine [^3H]MK-912 specifically bound. Compounds were screened at 1 μM or lower, using 1% DMSO as vehicle. Biochemical assay results are presented as the percent inhibition of specific binding in Table 6.

[2] = target: T2, human recombinant serotonin (5-Hydroxytryptamine) 5-HT2C receptor (Homo sapiens, UniProt P28335); assay: Serotonin 5-HT2C radioligand binding ([3H]Mesulergine); conditions: compound at 1 μM; CHO-K1 cells; read-out: Serotonin (1 μM) 5-HT2C, percent inhibition of specific binding
T2 construct: expressed in transfected cells; host or cells: CHO-K1 cells
T2 sequence (P28335 33-458): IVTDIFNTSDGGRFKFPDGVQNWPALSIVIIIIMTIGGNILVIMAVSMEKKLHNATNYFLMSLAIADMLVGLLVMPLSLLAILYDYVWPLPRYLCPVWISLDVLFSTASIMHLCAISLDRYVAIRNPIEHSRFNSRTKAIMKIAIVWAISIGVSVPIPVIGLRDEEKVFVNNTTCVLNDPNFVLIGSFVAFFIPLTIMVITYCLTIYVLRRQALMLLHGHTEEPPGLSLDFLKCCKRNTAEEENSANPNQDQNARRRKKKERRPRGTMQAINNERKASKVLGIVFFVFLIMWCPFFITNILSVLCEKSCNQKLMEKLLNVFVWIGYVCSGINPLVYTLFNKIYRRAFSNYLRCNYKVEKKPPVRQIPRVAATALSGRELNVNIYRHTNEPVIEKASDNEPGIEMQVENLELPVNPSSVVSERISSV
Protocol: To evaluate in radioligand binding assays the activity of compounds of the invention, human recombinant serotonin (5-Hydroxytryptamine) 5-HT2C receptor expressed in Chinese hamster ovary (CHO-K1) cells (Wolf, W. A. and Schutz, J. S., J. Neurochem. 69:1449, 1997) in a modified Tris-HCl buffer (50 mM Tris-HCl, pH 7.4, 0.1% Ascorbic Acid, 10 μM Pargyline) was used. Compounds of the invention were incubated with 1 nM [^3H]Mesulergine for 60 minutes at 25° C. Non-specific binding was estimated in the presence of 1 μM Mianserin. Receptor proteins were filtered and washed, the filters were then counted to determine [^3H]Mesulergine specifically bound. Compounds were screened at 1 μM or lower, using 1% DMSO as vehicle. Biochemical assay results are presented as the percent inhibition of specific binding in Table 7.

[3] = target: T3, human recombinant dopamine D2L receptor (Homo sapiens, UniProt P14416); assay: Dopamine D2L radioligand binding ([3H]Spiperone); conditions: compound at 1 μM; CHO cells; read-out: Dopamine (1 μM) D2L, percent inhibition of specific binding
T3 construct: expressed in transfected cells; host or cells: CHO cells
T3 sequence (P14416 whole entry): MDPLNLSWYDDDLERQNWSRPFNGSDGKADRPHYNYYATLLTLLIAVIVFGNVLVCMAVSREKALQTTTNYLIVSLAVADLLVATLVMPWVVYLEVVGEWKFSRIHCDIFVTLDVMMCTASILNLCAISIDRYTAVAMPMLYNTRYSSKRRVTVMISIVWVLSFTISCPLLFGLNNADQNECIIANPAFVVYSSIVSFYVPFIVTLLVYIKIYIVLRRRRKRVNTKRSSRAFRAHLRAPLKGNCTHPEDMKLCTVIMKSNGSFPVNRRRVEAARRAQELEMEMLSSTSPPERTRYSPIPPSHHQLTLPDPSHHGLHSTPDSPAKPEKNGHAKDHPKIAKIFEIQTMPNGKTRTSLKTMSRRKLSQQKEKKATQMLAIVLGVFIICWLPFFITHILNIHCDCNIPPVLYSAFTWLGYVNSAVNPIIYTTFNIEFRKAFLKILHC
Protocol: To evaluate in radioligand binding assays the activity of compounds of the invention, human recombinant dopamine D2L receptor expressed in Chinese hamster ovary (CHO) cells (Grandy, D. K. et al. Proc. Natl. Acad. Sci. USA. 86:9762, 1989; Hayes, G. et al., Mol. Endocrinol. 6:920, 1992) in a modified Tris-HCl buffer (50 mM Tris-HCl, pH 7.4, 1.4 mM Ascorbic Acid, 0.001% BSA, 150 mM NaCl) was used. Compounds of the invention were incubated with 0.16 nM [^3H]Spiperone for 120 minutes at 25° C. Non-specific binding was estimated in the presence of 10 μM Haloperidol. Receptor proteins were filtered and washed, the filters were then counted to determine [^3H]Spiperone specifically bound. Compounds were screened at 1 μM or lower, using 1% DMSO as vehicle. Biochemical assay results are presented as the percent inhibition of specific binding in Table 6.

| Structure (SMILES) | inhibition at 1 µM [1] | inhibition at 1 µM [2] | inhibition at 1 µM [3] |
| --- | --- | --- | --- |
| Cc1ccc2c(c1)c1c(n2CCC(N)=O)CCN(C)C1 [Compound 46, 3-(1,2,3,4-tetrahydro-2,8-dimethylpyrido[4,3-b]indol-5-yl)propanamide] | 44% | 65% | 4% |
| Cc1ccc2c(c1)c1c(n2CCC(=O)Nc2ccc(F)cc2)CCN(C)C1 [Compound 47, N-(4-fluorophenyl)-3-(1,2,3,4-tetrahydro-2,8-dimethylpyrido[4,3-b]indol-5-yl)propanamide] | 73% | 90% | -3% |
| CN1CCc2c(c3cc(Cl)ccc3n2CC(=O)N(C)C)C1 [Compound 48, 2-(8-chloro-1,2,3,4-tetrahydro-2-methylpyrido[4,3-b]indol-5-yl)-N,N-dimethylacetamide] | 20% | 37% | -6% |
| CN1CCc2c(c3cc(Cl)ccc3n2CCC(=O)N(C)C)C1 [Compound 49, 3-(8-chloro-1,2,3,4-tetrahydro-2-methylpyrido[4,3-b]indol-5-yl)-N,N-dimethylpropanamide] | 83% | 47% | 9% |
| Cc1ccc2c(c1)c1c(n2CCNC(=O)c2ccncc2)CCN(C)C1 [Compound 50, N-(2-(1,2,3,4-tetrahydro-2,8-dimethylpyrido[4,3-b]indol-5-yl)ethyl)isonicotinamide] | 38% | 35% | 7% |
| Cc1ccc2c(c1)c1c(n2CC(=O)Nc2ccc(F)cc2)CCN(C)C1 [Compound 51, N-(4-fluorophenyl)-2-(1,2,3,4-tetrahydro-2,8-dimethylpyrido[4,3-b]indol-5-yl)acetamide] | 22% | 70% | 19% |
| CCCCOC(=O)Cn1c2c(c3cc(Cl)ccc31)CN(C)CC2 [Compound 52, butyl 2-(8-chloro-1,2,3,4-tetrahydro-2-methylpyrido[4,3-b]indol-5-yl)acetate] | 38% | 85% | 22% |
| Cc1ccc2c(c1)c1c(n2CCC(=O)NC(C)C)CCN(C)C1 [Compound 53] | 54% | 51% | -2% |
| Cc1ccc2c(c1)c1c(n2CCC(=O)NCc2ccccc2)CCN(C)C1 [Compound 59, N-benzyl-3-(1,2,3,4-tetrahydro-2,8-dimethylpyrido[4,3-b]indol-5-yl)propanamide] | 45% | 72% | 4% |
| CN1CCc2c(c3cc(Cl)ccc3n2CC(=O)NC2CCCCC2)C1 [Compound 60, 2-(8-chloro-1,2,3,4-tetrahydro-2-methylpyrido[4,3-b]indol-5-yl)-N-cyclohexylacetamide] | 23% | 35% | 18% |
| Cc1ccc2c(c1)c1c(n2CCNC(=O)C(C)C)CCN(C)C1 [Compound 61, N-(2-(1,2,3,4-tetrahydro-2,8-dimethylpyrido[4,3-b]indol-5-yl)ethyl)isobutyramide] | 46% | 27% | -3% |
| Cc1ccc2c(c1)c1c(n2CCNC(=O)C2CCCCC2)CCN(C)C1 [Compound 62, N-(2-(1,2,3,4-tetrahydro-2,8-dimethylpyrido[4,3-b]indol-5-yl)ethyl)cyclohexanecarboxamide] | 40% | 54% | 5% |
| Cc1ccc2c(c1)c1c(n2CCNC(=O)c2ccc(F)cc2Cl)CCN(C)C1 [Compound 63, 2-chloro-4-fluoro-N-(2-(1,2,3,4-tetrahydro-2,8-dimethylpyrido[4,3-b]indol-5-yl)ethyl)benzamide] | 65% | 72% | 7% |
| Cc1ccc2c(c1)c1c(n2CC(N)=O)CCN(C)C1 [Compound 64, 2-(1,2,3,4-tetrahydro-2,8-dimethylpyrido[4,3-b]indol-5-yl)acetamide] | 9% | 45% | 2% |
| Cc1ccc2c(c1)c1c(n2CCNC(=O)C2CCNCC2)CCN(C)C1 [Compound 65, N-(2-(1,2,3,4-tetrahydro-2,8-dimethylpyrido[4,3-b]indol-5-yl)ethyl)piperidine-4-carboxamide] | 17% | 24% | 7% |
| Cc1ccc2c(c1)c1c(n2CCNC(=O)c2ccc(F)cc2)CCN(C)C1 [Compound 66, 4-fluoro-N-(2-(1,2,3,4-tetrahydro-2,8-dimethylpyrido[4,3-b]indol-5-yl)ethyl)benzamide] | 70% | 93% | -2% |
| CN1CCc2c(c3cc(Cl)ccc3n2CCC(N)=O)C1 [Compound 67, 3-(8-chloro-1,2,3,4-tetrahydro-2-methylpyrido[4,3-b]indol-5-yl)propanamide] | 79% | 65% | -1% |
| Cc1ccc2c(c1)c1c(n2CCNC(=O)C2CCCC2)CCN(C)C1 [Compound 68, N-(2-(1,2,3,4-tetrahydro-2,8-dimethylpyrido[4,3-b]indol-5-yl)ethyl)cyclopentanecarboxamide] | 62% | 40% | 1% |
| Cc1ccc2c(c1)c1c(n2CCNC(=O)c2ccncc2C)CCN(C)C1 [Compound 69, N-(2-(1,2,3,4-tetrahydro-2,8-dimethylpyrido[4,3-b]indol-5-yl)ethyl)-3-methylpyridine-4-carboxamide] | 25% | 24% | 4% |
| Cc1ccc2c(c1)c1c(n2C2CCCCC2O)CCN(C)C1 (stereo not drawn) [Compound 73, 2-(1,2,3,4-tetrahydro-2,8-dimethylpyrido[4,3-b]indol-5-yl)cyclohexanol] | 11% | 52% | -3% |
